Experimental data taken from patent publication US20260355213A1, “TREATMENT OF INFECTIONS CAUSED BY INTRACELLULAR PATHOGENS” (Sheba Impact Ltd., priority 2023, published 2026).

Experiments:
[1] = system: Listeria monocytogenes in HeLa cells; test: Intracellular Listeria monocytogenes infection of HeLa cells (CFU at 6 h p.i.); format: cell-based; settings: 10 μM
Procedure: 4×10^5 HeLa cells were seeded in a 24-well tissue culture treated plate and incubated for 24 h at 37 °C under 5% CO2 atmosphere. On the next day, cells were incubated for 3 h with fresh DMEM supplemented with the PCM-0094889, PCM-0086166, PCM-0004846, PCM-0103431, PCM-0095494, PCM-0095293, PCM-0001349, and PCM-0095564 compounds at a final concentration of 10 μM. overnight cultures of Listeria monocytogenes that were grown statically at 37 °C were washed and resuspended in PBS. Cell infection at am MOI of 1:50 was conducted by adding 20 μl of Listeria suspension to each well, following by incubation at 37 °C under 5% CO2 atmosphere. 30 min p.i. the cells were washed with PBS and the medium was replaced with fresh medium supplemented with 10 μM of the tested compounds. One h p.i., gentamycin was added to each well at a final concentration of 50 μg/ml. At 6 h p.i., the cells were washed with PBS and lysed with 250 μl DDW at room temperature. The cell lysates were then diluted in PBS and plated on LB plates for CFU count. Intracellular Listeria infection was calculated as the number of intracellular bacteria recovered at 6 h p.i., divided by the infecting inoculum (CFUs). Listeria infection in the presence of the compounds is shown relative to the number of intracellular bacteria that were recovered from cells that were not treated with the compounds. The charts show the mean and standard error of the mean (SEM) of six biological repeats in two independent experiments, biological repeats.

caspase 3 = test: Caspase 3 activity in HeLa cells (Multiplex Activity Fluorometric Assay Kit); format: cell-based, human; settings: HeLa cells infected with S. Typhimurium
Source text: (§1) One of the possible mechanisms that could explain the activity of the compounds in inhibiting infection by different pathogens is inducing programed cell death in infected cells. To examine this experimentally, the present inventors have used Caspase-3, Caspase-8 and Caspase-9 Multiplex Activity Fluorometric Assay Kit (ab219915) to monitor caspase 3, caspase 8 and caspase 9 activity in HeLa cells infected with S. Typhimurium in the presence and absence of the compounds.

caspase 8 = test: Caspase 8 activity in HeLa cells (Multiplex Activity Fluorometric Assay Kit); format: cell-based, human; settings: HeLa cells infected with S. Typhimurium
Source text: as §1

SMILES: CN1CCN(CCOc2cc(OC3CCOCC3)c3c(Nc4c(Cl)ccc5c4OCO5)ncnc3c2)CC1 [Compound 1]
- inhibition of Listeria monocytogenes infection of HeLa cells [1]: able to actively inhibit

SMILES: Cc1cc(Nc2ncnc3ccc(-c4ccc(CNCCS(C)(=O)=O)o4)cc23)ccc1Oc1ccn2ncnc2c1 [Compound 5]
- caspase 3 activity in infected cells (caspase 3): significantly higher activity
- inhibition of Listeria monocytogenes infection of HeLa cells [1]: able to actively inhibit
- Caspase 8 activity in infected HeLa cells (caspase 8): significantly higher activity

SMILES: O=C(Nc1ccno1)Nc1ccc(Cl)cc1Cl [Compound 7]
- caspase 3 activity in infected cells (caspase 3): significantly higher activity
- inhibition of Listeria monocytogenes infection of HeLa cells [1]: able to actively inhibit
- Caspase 8 activity in infected HeLa cells (caspase 8): significantly higher activity

SMILES: CC(C)(C)NCC(O)COc1ccccc1C1CCCC1 (stereo not shown) [Compound 2]
- caspase 3 activity in infected cells (caspase 3): significantly higher activity

SMILES: CCc1cc2c(cc1CC)CC(NC[C@@H](O)c1ccc(O)c3[nH]c(=O)ccc13)C2 [Compound 8]
- caspase 3 activity in infected cells (caspase 3): significantly higher activity
- inhibition of Listeria monocytogenes infection of HeLa cells [1]: able to actively inhibit

SMILES: COc1ccccc1C1(CCNCc2ccc(N(C)C)cc2)CCOC(C)(C)C1 (stereo not shown) [Compound 4]
- caspase 3 activity in infected cells (caspase 3): significantly higher activity
- inhibition of Listeria monocytogenes infection of HeLa cells [1]: able to actively inhibit

SMILES: Cc1nc2c([nH]1)CCN(C(=O)c1ccc(NC(=O)c3ccccc3-c3ccccc3)cc1)c1ccccc1-2 [Compound 6]
- caspase 3 activity in infected cells (caspase 3): significantly higher activity
